Laboratory results: patent US20240190868A1, “SOS1 INHIBITORS” (Acerand Therapeutics (USA) Limited, priority 2022, published 2024)

Tested on: cellular pERK in NCI-H1975 cells (EGFR/L858R-T790M)
Test: pERK potency assay (In Cell ELISA)
Type: cell-based
Details: Homo sapiens, 1 h compound incubation
Excerpt: The assay measures the ability of a compound to inhibit SOS1 function in cells. SOS1 activates RAS proteins by catalyzing the conversion of RAS GDP to RAS GTP in response to receptor tyrosine kinase activation. Activation of RAS induces a sequence of cellular signaling events that result in increased phosphorylation of ERK at Threonine 202 and Tyrosine 204 (pERK). The procedure (i.e., In Cell ELISA as described below) measures the level of cellular pERK in response to a test compound in NCI-H1975 cells (EGFR/L858R-T790M).
First, NCI-H1975 cells were grown and maintained using media and procedures recommended by the ATCC. A day before compound addition, cells were plated in poly-D-lysine coated 96-well cell culture plates (Corning® BioCoat® Cat #356640) at 25000 cells/well/100 μL and grown overnight in an incubator at 37° C. with 5% CO2. A solution of a test compound was prepared with 3-fold serial dilutions in DMSO having a top concentration of 6 mM. On the day of the assay, 50 μL of a test compound dilution in media was added to each well of cell culture plate with a final compound concentration in the range of 0.001 μM to 20 μM. After addition of the compound, cells were incubated for 1 h at 37° C. with 5% CO2, after which the culture medium was removed. Cells were fixed with 4% formaldehyde in phosphate-buffered saline (PBS) and incubated at RT for 20 min. The plate was washed three times with PBST (PBS with 0.05% Tween®-20), followed by incubation with 100 μL of pre-cooled methanol at −20° C. for 20 min. After incubation, methanol was removed. The plate was again washed with PBST. Cells were then permeabilized with 100 μL/well of 0.1% Triton X-100 in PBS at RT for 20 min and then quenched with a quenching buffer (PBST containing 1% H2O2 and 0.1% sodium azide) for 20 min at RT with gentle shaking. After washing once with PBST, a blocking buffer (250 uL/well, Pierce™ Protein-Free-PBS Blocking Buffer, Cat #37572) was then added to the cells for 1-h incubation at RT, followed by an anti-pERK antibody (cell signaling, 1:1000 dilution in 5% BSA in PBST) incubation overnight at 4° C. and a secondary antibody-HRP (Jackson immunoresearch, 1:3000 dilution in 5% BSA in PBST) incubation at RT for 1 h. PBST wash was carried out after each step three times. Before the addition of a substrate (Advansta ELISABright™), the plate was washed with PBS twice to remove detergent residues. The Cellular pERK level was determined using the microplate reader (Biotek Synergy™ H1) to detect the chemiluminescence signal. IC50 was determined by fitting a 4-parameter sigmoidal concentration-response model.

CC(=O)N1CC=C(c2cc3/c(=N/[C@H](C)c4cccc(C(F)(F)F)c4C)nc(C)n(C)c3cn2)CC1 [Compound 2, (R,Z)-1-(4-(1,2-dimethyl-4-((1-(2-methyl-3-(trifluoromethyl)phenyl)ethyl)imino)-1,4-dihydropyrido[3,4-d]pyrimidin-6-yl)-3,6-dihydropyridin-1(2H)-yl)ethan-1-one]
IC50: < 100 nM

Cc1c(C#N)cccc1[C@@H](C)/N=c1\nc(C)n(C)c2cnc(C3=CCC(F)(F)CC3)cc12 [Compound 40]
IC50: < 100 nM

CC(=O)N1CC=C(c2cc3/c(=N/[C@H](C)c4cccc(C#N)c4C)nc(C)n(C)c3cn2)CC1 [Compound 7]
IC50: < 100 nM

CC(=O)N1CC=C(c2cc3/c(=N/[C@H](C)c4cccc(C(F)F)c4F)nc(C)n(C)c3cn2)CC1 [Compound 4, (R,Z)-1-(4-(4-((1-(3-(difluoromethyl)-2-fluorophenyl)ethyl)imino)-1,2-dimethyl-1,4-dihydropyrido[3,4-d]pyrimidin-6-yl)-3,6-dihydropyridin-1(2H)-yl)ethan-1-one]
IC50: < 100 nM

CC(=O)N1CC=C(c2cc3/c(=N/[C@H](C)c4cccc(C(F)(F)F)c4C)nc(C)n(C4CC4)c3cn2)CC1 [Compound 10]
IC50: < 100 nM

Cc1c(C#N)cccc1[C@@H](C)/N=c1\nc(C)n(C)c2cnc(C3(C(F)F)CC3)cc12 [Compound 19]
IC50: < 100 nM

Cc1c([C@@H](C)/N=c2\nc(C)n(C)c3cnc(C4=CCN(S(C)(=O)=O)CC4)cc23)cccc1C(F)(F)F [Compound 42, (R,Z)-1,2-dimethyl-N-(1-(2-methyl-3-(trifluoromethyl)phenyl)ethyl)-6-(1-(methylsulfonyl)-1,2,3,6-tetrahydropyridin-4-yl)pyrido[3,4-d]pyrimidin-4(1H)-imine]
IC50: < 100 nM

CC(=O)N1CCC(F)(c2cc3/c(=N/[C@H](C)c4cccc(C(F)F)c4F)nc4n(c3cn2)CCC4)CC1 [Compound 29]
IC50: < 100 nM

CC(=O)N1CCN2c3cc4/c(=N/[C@H](C)c5cccc(C(F)F)c5F)ncn(C)c4cc3OC[C@H]2C1 [Compound 92, 1-((R,Z)-11-(((R)-1-(3-(difluoromethyl)-2-fluorophenyl)ethyl)imino)-8-methyl-1,2,4a,5,8,11-hexahydropyrazino[1′,2′:4,5][1,4]oxazino[3,2-g]quinazolin-3(4H)-yl)ethan-1-one]
IC50: < 100 nM

CC(=O)N1CCC(F)(c2cc3/c(=N/[C@H](C)c4cccc(C(F)(F)F)c4C)nc4n(c3cn2)CCO4)CC1 [Compound 33, (R,Z)-1-(4-fluoro-4-(5-((1-(2-methyl-3-(trifluoromethyl)phenyl)ethyl)imino)-8,9-dihydro-5H-oxazolo[3,2-a]pyrido[4,3-e]pyrimidin-3-yl)piperidin-1-yl)ethan-1-one]
IC50: < 100 nM

Cc1c([C@@H](C)/N=c2\nc(C)n(C)c3cnc(N4CCC(F)(F)CC4)cc23)cccc1C(F)(F)F [Compound 48, (R,Z)-6-(4,4-difluoropiperidin-1-yl)-1,2-dimethyl-N-(1-(2-methyl-3-(trifluoromethyl)phenyl)ethyl)pyrido[3,4-d]pyrimidin-4(1H)-imine]
IC50: < 100 nM

CC(=O)N1CC=C(c2cnc3c(c2)/c(=N/[C@H](C)c2cccc(C(F)(F)F)c2C)nc(C)n3C)CC1 [Compound 12]
IC50: < 100 nM

CC(=O)N1CCN(c2cc3/c(=N/[C@H](C)c4cccc(C(F)(F)F)c4C)nc(C)n(C)c3cn2)CC1 [Compound 49]
IC50: < 100 nM

C#C[C@@H](/N=c1\nc(C)n(C)c2cnc(C3=CCN(C(C)=O)CC3)cc12)c1cccc(C(F)(F)F)c1C [Compound 11]
IC50: < 100 nM

CC(=O)N1CCC(F)(c2cc3/c(=N/[C@H](C)c4cccc(C(F)F)c4F)nc(C)n(C)c3cn2)CC1 [Compound 6, (R,Z)-1-(4-(4-((1-(3-(difluoromethyl)-2-fluorophenyl)ethyl)imino)-1,2-dimethyl-1,4-dihydropyrido[3,4-d]pyrimidin-6-yl)-4-fluoropiperidin-1-yl)ethan-1-one]
IC50: < 100 nM

CC(=O)NC/C=C/c1cc2/c(=N/[C@H](C)c3cccc(C(F)F)c3F)nc(C)n(C)c2cn1 [Compound 98, N-((E)-3-((Z)-4-(((R)-1-(3-(difluoromethyl)-2-fluorophenyl)ethyl)imino)-1,2-dimethyl-1,4-dihydropyrido[3,4-d]pyrimidin-6-yl)allyl)acetamide]
IC50: < 100 nM

Cc1c(C#N)cccc1[C@@H](C)/N=c1\nc(C)n(C)c2cnc(N3CCC(F)(F)C3)cc12 [Compound 66]
IC50: < 100 nM

Cc1c([C@@H](C)/N=c2\nc(C)n(C3CC3)c3cnc(N4CCOCC4)cc23)cccc1C(F)(F)F [Compound 79]
IC50: < 100 nM

CC(=O)N1CC=C(c2ccc3c(c2)/c(=N/[C@H](C)c2cccc(C(F)(F)F)c2C)nc(C)n3C)CC1 [Compound 37]
IC50: < 100 nM

CC(=O)N1CC=C(c2cc3/c(=N/[C@H](C)c4cccc(C(F)(F)F)c4C)ncn(C)c3cn2)CC1 [Compound 16]
IC50: < 100 nM

CC(=O)N1CCC(F)(c2cc3/c(=N/[C@H](C)c4cccc(C(F)(F)F)c4C)nc(C)n(C)c3cn2)C[C@H]1C (stereo partly drawn) [Compound 45, 1-((2R)-4-((Z)-1,2-dimethyl-4-(((R)-1-(2-methyl-3-(trifluoromethyl)phenyl)ethyl)imino)-1,4-dihydropyrido[3,4-d]pyrimidin-6-yl)-4-fluoro-2-methylpiperidin-1-yl)ethan-1-one]
IC50: < 100 nM

Cc1c([C@@H](C)/N=c2\nc(C)n(C)c3cnc(N4CCC5(CC5)C4)cc23)cccc1C(F)(F)F [Compound 50]
IC50: < 100 nM

Cc1c([C@@H](C)/N=c2\nc(C)n(C)c3cnc(N4CCO[C@H](C)C4)cc23)cccc1C(F)(F)F [Compound 52]
IC50: < 100 nM

Cc1c(C#N)cccc1[C@@H](C)/N=c1\nc(C)n(C)c2cnc(N3CCC4(CC4)C3)cc12 [Compound 65]
IC50: < 100 nM

Cc1c([C@@H](C)/N=c2\nc(C)n(C)c3ccc(C4=CCOCC4)cc23)cccc1C(F)(F)F [Compound 36]
IC50: < 100 nM

CC(=O)N1CCC(F)(c2cc3/c(=N/[C@H](C)c4cccc(C#N)c4C)nc(C)n(C)c3cn2)CC1 [Compound 8]
IC50: < 100 nM

C[C@@H](/N=c1\ncn(C)c2cnc(C3(C(F)F)CC3)cc12)c1cccc(C(F)F)c1F [Compound 20, (R,Z)—N-(1-(3-(difluoromethyl)-2-fluorophenyl)ethyl)-6-(1-(difluoromethyl)-cyclopropyl)-1-methylpyrido[3,4-d]pyrimidin-4(1H)-imine]
IC50: < 100 nM

CC(=O)N1CCC(F)(c2ccc3c(c2)/c(=N/[C@H](C)c2cccc(C(F)(F)F)c2C)ncn3C)CC1 [Compound 17]
IC50: < 100 nM

Cc1c(C#N)cccc1[C@@H](C)/N=c1\nc(C)n(C)c2cnc(N3CCC4(CC3)CC4)cc12 [Compound 60]
IC50: < 100 nM

CC(=O)N1CCC(O)(c2cc3/c(=N/[C@H](C)c4cccc(C(F)(F)F)c4C)nc4n(c3cn2)CCC4)CC1 [Compound 26, (R,Z)-1-(4-hydroxy-4-(5-((1-(2-methyl-3-(trifluoromethyl)phenyl)ethyl)-imino)-5,7,8,9-tetrahydropyrido[4,3-e]pyrrolo[1,2-a]pyrimidin-3-yl)piperidin-1-yl)ethan-1-one]
IC50: < 100 nM

Cc1c([C@@H](C)/N=c2\nc(C)n(C)c3cnc(N4CCOCC4)cc23)cccc1C(F)(F)F [Compound 55]
IC50: < 100 nM

Cc1c([C@@H](C)/N=c2\nc(C)n(C(C)C)c3cnc(N4CCOCC4)cc23)cccc1C(F)(F)F [Compound 78]
IC50: < 100 nM

CC(=O)N1CCC(F)(c2cc3/c(=N/[C@H](C)c4cccc(C(F)(F)F)c4C)nc(C)n(C)c3cn2)CC1(C)C (stereo partly drawn) [Compound 46, 1-(4-((Z)-1,2-dimethyl-4-(((R)-1-(2-methyl-3-(trifluoromethyl)phenyl)ethyl)-imino)-1,4-dihydropyrido[3,4-d]pyrimidin-6-yl)-4-fluoro-2,2-dimethylpiperidin-1-yl)ethan-1-one]
IC50: < 100 nM

Cc1c([C@@H](C)/N=c2\nc(C)n(C)c3cnc(N4CCC(F)(F)C4)cc23)cccc1C(F)(F)F [Compound 62]
IC50: < 100 nM

Cc1n/c(=N\[C@H](C)c2cccc(C(F)F)c2F)c2cc(C3(C(F)F)CC3)ncc2n1C [Compound 94, (R,Z)—N-(1-(3-(difluoromethyl)-2-fluorophenyl)ethyl)-6-(1-(difluoromethyl)cyclopropyl)-1,2-dimethylpyrido[3,4-d]pyrimidin-4(1H)-imine]
IC50: < 100 nM

Cc1c(C#N)cccc1[C@@H](C)/N=c1\nc(C)n(C)c2cnc(N3CCCCC3)cc12 [Compound 64]
IC50: < 100 nM
